Source: ChEMBL document CHEMBL3885881, “DrugMatrix”

Species on record: Rattus norvegicus
Test: DrugMatrix - Regimen: Daily Repeat
Assay type: toxicity, organism-based, Sprague-Dawley
Design: regimen Daily Repeat, gender Male, age 6-8 weeks
Conditions: in vivo, po, route oral GAVAGE, vehicle 100 % SALINE; for ABSOLUTE BASOPHIL / ABSOLUTE EOSINOPHIL / ABSOLUTE LYMPHOCYTE / ABSOLUTE MONOCYTE / ABSOLUTE SEGMENTED NEUTROPHIL / BASOPHIL / EOSINOPHIL / ERYTHROCYTE COUNT / HEMATOCRIT / HEMOGLOBIN / LEUKOCYTE COUNT / LYMPHOCYTE / MEAN CORPUSCULAR HEMOGLOBIN / MEAN CORPUSCULAR HEMOGLOBIN CONCENTRATION / MONOCYTE / NEUTROPHIL / NUCLEATED RED BLOOD CELLS / PLATELET COUNT: tissue Blood; for ALANINE AMINOTRANSFERASE / ALBUMIN / ALKALINE PHOSPHATASE / ASPARTATE AMINOTRANSFERASE / BLOOD UREA NITROGEN / CARBON DIOXIDE / CHOLESTEROL / CREATINE PHOSPHOKINASE / CREATININE / GLUCOSE / LACTATE DEHYDROGENASE / LIPASE / POTASSIUM / SODIUM / TOTAL BILIRUBIN / TOTAL PROTEIN / URIC ACID: tissue Plasma
[1] = 330 mg/kg, 120 h, dose level Low, time 5 day
[2] = 980 mg/kg, 72 h, dose level High, time 3 day
[3] = 980 mg/kg, 120 h, dose level High, time 5 day

Nc1nc2c(ncn2COCCO)c(=O)[nH]1 [ACYCLOVIR]
ABSOLUTE BASOPHIL [1]: 0 CELLS/uL
ABSOLUTE EOSINOPHIL [1]: 23.33 CELLS/uL
ABSOLUTE LYMPHOCYTE [1]: 6827.33 CELLS/uL
ABSOLUTE MONOCYTE [1]: 23.33 CELLS/uL
ABSOLUTE SEGMENTED NEUTROPHIL [1]: 459.33 CELLS/uL
BASOPHIL [1]: 0%
EOSINOPHIL [1]: 0.33%
ERYTHROCYTE COUNT [1]: 5.77 x10E6/uL
HEMATOCRIT [1]: 36%
HEMOGLOBIN [1]: 13.93 G/DL
LEUKOCYTE COUNT [1]: 7.33 x10E3/uL
LYMPHOCYTE [1]: 92.67%
MEAN CORPUSCULAR HEMOGLOBIN [1]: 24.17 pg
MEAN CORPUSCULAR HEMOGLOBIN CONCENTRATION [1]: 38.7 G/DL
MONOCYTE [1]: 0.33%
NEUTROPHIL [1]: 6.67%
NUCLEATED RED BLOOD CELLS [1]: 0 /100WBC
PLATELET COUNT [1]: 980.67 x10E3/uL
ALANINE AMINOTRANSFERASE [1]: 54 u/L
ALBUMIN [1]: 4.1 G/DL
ALKALINE PHOSPHATASE [1]: 310 u/L
ASPARTATE AMINOTRANSFERASE [1]: 89.33 u/L
BLOOD UREA NITROGEN [1]: 14 mg/dL
CARBON DIOXIDE [1]: 31 mmol/L
CHOLESTEROL [1]: 71.33 mg/dL
CREATINE PHOSPHOKINASE [1]: 331 u/L
CREATININE [1]: 0.35 mg/dL
GLUCOSE [1]: 149.67 mg/dL
LACTATE DEHYDROGENASE [1]: 119.33 u/L
LIPASE [1]: 11.67 u/L
POTASSIUM [1]: 6.3 MEQ/L
SODIUM [1]: 145.23 MEQ/L
TOTAL BILIRUBIN [1]: 0.17 mg/dL
TOTAL PROTEIN [1]: 5.87 G/DL
URIC ACID [1]: 0.97 mg/dL
ABSOLUTE BASOPHIL [2]: 0 CELLS/uL
ABSOLUTE EOSINOPHIL [2]: 28.33 CELLS/uL
ABSOLUTE LYMPHOCYTE [2]: 6898 CELLS/uL
ABSOLUTE MONOCYTE [2]: 45.67 CELLS/uL
ABSOLUTE SEGMENTED NEUTROPHIL [2]: 428 CELLS/uL
BASOPHIL [2]: 0%
EOSINOPHIL [2]: 0.33%
ERYTHROCYTE COUNT [2]: 5.27 x10E6/uL
HEMATOCRIT [2]: 32.97%
HEMOGLOBIN [2]: 12.8 G/DL
LEUKOCYTE COUNT [2]: 7.4 x10E3/uL
LYMPHOCYTE [2]: 93%
MEAN CORPUSCULAR HEMOGLOBIN [2]: 24.37 pg
MEAN CORPUSCULAR HEMOGLOBIN CONCENTRATION [2]: 38.87 G/DL
MONOCYTE [2]: 0.67%
NEUTROPHIL [2]: 6%
NUCLEATED RED BLOOD CELLS [2]: 0 /100WBC
PLATELET COUNT [2]: 1125.67 x10E3/uL
ALANINE AMINOTRANSFERASE [2]: 47.33 u/L
ALBUMIN [2]: 4.07 G/DL
ALKALINE PHOSPHATASE [2]: 321 u/L
ASPARTATE AMINOTRANSFERASE [2]: 79.33 u/L
BLOOD UREA NITROGEN [2]: 12.67 mg/dL
CARBON DIOXIDE [2]: 28.33 mmol/L
CHOLESTEROL [2]: 67.33 mg/dL
CREATINE PHOSPHOKINASE [2]: 458 u/L
CREATININE [2]: 0.23 mg/dL
GLUCOSE [2]: 154 mg/dL
LACTATE DEHYDROGENASE [2]: 123 u/L
LIPASE [2]: 9.67 u/L
POTASSIUM [2]: 5.85 MEQ/L
SODIUM [2]: 142.43 MEQ/L
TOTAL BILIRUBIN [2]: 0.17 mg/dL
TOTAL PROTEIN [2]: 5.77 G/DL
URIC ACID [2]: 0.9 mg/dL
ABSOLUTE BASOPHIL [3]: 0 CELLS/uL
ABSOLUTE EOSINOPHIL [3]: 32 CELLS/uL
ABSOLUTE LYMPHOCYTE [3]: 9269.33 CELLS/uL
ABSOLUTE MONOCYTE [3]: 115 CELLS/uL
ABSOLUTE SEGMENTED NEUTROPHIL [3]: 383.67 CELLS/uL
BASOPHIL [3]: 0%
EOSINOPHIL [3]: 0.33%
ERYTHROCYTE COUNT [3]: 5.83 x10E6/uL
HEMATOCRIT [3]: 35.13%
HEMOGLOBIN [3]: 13.9 G/DL
LEUKOCYTE COUNT [3]: 9.8 x10E3/uL
LYMPHOCYTE [3]: 94.33%
MEAN CORPUSCULAR HEMOGLOBIN [3]: 23.83 pg
MEAN CORPUSCULAR HEMOGLOBIN CONCENTRATION [3]: 39.6 G/DL
MONOCYTE [3]: 1.33%
NEUTROPHIL [3]: 4%
NUCLEATED RED BLOOD CELLS [3]: 0.33 /100WBC
PLATELET COUNT [3]: 783 x10E3/uL
ALANINE AMINOTRANSFERASE [3]: 46.67 u/L
ALBUMIN [3]: 4.17 G/DL
ALKALINE PHOSPHATASE [3]: 320.33 u/L
ASPARTATE AMINOTRANSFERASE [3]: 74 u/L
BLOOD UREA NITROGEN [3]: 15.67 mg/dL
CARBON DIOXIDE [3]: 29.33 mmol/L
CHOLESTEROL [3]: 57.67 mg/dL
CREATINE PHOSPHOKINASE [3]: 253.33 u/L
CREATININE [3]: 0.44 mg/dL
GLUCOSE [3]: 155.67 mg/dL
LACTATE DEHYDROGENASE [3]: 135.67 u/L
LIPASE [3]: 12 u/L
POTASSIUM [3]: 5.65 MEQ/L
SODIUM [3]: 145.17 MEQ/L
TOTAL BILIRUBIN [3]: 0.17 mg/dL
TOTAL PROTEIN [3]: 5.83 G/DL
URIC ACID [3]: 0.83 mg/dL
